{"source": "ChEMBL document CHEMBL6109102", "about": "“Conjugation with the XJB peptide enhanced neuroprotective effect of honokiol via SIRT3 modulation” (Eur J Med Chem, 2025)", "key": {"PC-12 [1]": {"system": "PC-12", "test": "Cytotoxicity against rat PC12 cells assessed as inhibition of cell viability at 30 uM incubated for 24 hrs by MTT assay", "type": "functional, cell-based"}, "SH-SY5Y": {"system": "SH-SY5Y", "test": "Cytotoxicity against human SH-SY5Y cells assessed as inhibition of cell viability at 100 uM incubated for 24 hrs by MTT assay", "type": "functional, cell-based"}, "PC-12 [2]": {"system": "PC-12", "test": "Cytoprotective activity against H2O2-induced cell injury in rat PC12 cells assessed as cell viability at 10 uM incubated for 24 hrs by MTT assay", "type": "functional, cell-based"}, "PC-12 [3]": {"system": "PC-12", "test": "Cytoprotective activity against H2O2-induced cell injury in rat PC12 cells assessed as cell viability at 20 uM incubated for 24 hrs by MTT assay", "type": "functional, cell-based"}, "[4]": {"test": "Drug uptake in mitochondria of rat PC12 cells at 8 uM incubated for 8.5 hrs by HPLC analysis", "type": "ADME", "settings": "pc12, 8.5 h"}, "PC-12 [5]": {"system": "PC-12", "test": "Inhibition of apoptosis in H2O2-induced rat PC12 cells assessed as viable cells at 1.25 uM incubated with compound for 24 hrs followed by H2O2 addition and measured after 24 hrs by Annexin V-FITC/PI staining based flow cytometry analysis (reference value: 91.4%)", "type": "functional", "settings": "read-out: Activity"}, "PC-12 [6]": {"system": "PC-12", "test": "Inhibition of apoptosis in H2O2-induced rat PC12 cells assessed as early apoptotic cells at 1.25 uM incubated with compound for 24 hrs followed by H2O2 addition and measured after 24 hrs by Annexin V-FITC/PI staining based flow cytometry analysis (reference value: 1.09%)", "type": "functional", "set-up": "scale not given: the % may be the effect or the level left"}, "PC-12 [7]": {"system": "PC-12", "test": "Inhibition of apoptosis in H2O2-induced rat PC12 cells assessed as late apoptotic cells at 1.25 uM incubated with compound for 24 hrs followed by H2O2 addition and measured after 24 hrs by Annexin V-FITC/PI staining based flow cytometry analysis (reference value: 2.64%)", "type": "functional", "set-up": "scale not given: the % may be the effect or the level left"}, "PC-12 [8]": {"system": "PC-12", "test": "Inhibition of apoptosis in H2O2-induced rat PC12 cells assessed as necrotic cells at 1.25 uM incubated with compound for 24 hrs followed by H2O2 addition and measured after 24 hrs by Annexin V-FITC/PI staining based flow cytometry analysis (reference value: 4.05%)", "type": "functional", "set-up": "scale not given: the % may be the effect or the level left"}, "PC-12 [9]": {"system": "PC-12", "test": "Inhibition of apoptosis in H2O2-induced rat PC12 cells assessed as viable cells at 2.5 uM incubated with compound for 24 hrs followed by H2O2 addition and measured after 24 hrs by Annexin V-FITC/PI staining based flow cytometry analysis (reference value: 91.4%)", "type": "functional", "settings": "read-out: Activity"}, "PC-12 [10]": {"system": "PC-12", "test": "Inhibition of apoptosis in H2O2-induced rat PC12 cells assessed as early apoptotic cells at 2.5 uM incubated with compound for 24 hrs followed by H2O2 addition and measured after 24 hrs by Annexin V-FITC/PI staining based flow cytometry analysis (reference value: 1.09%)", "type": "functional", "set-up": "scale not given: the % may be the effect or the level left"}, "PC-12 [11]": {"system": "PC-12", "test": "Inhibition of apoptosis in H2O2-induced rat PC12 cells assessed as late apoptotic cells at 2.5 uM incubated with compound for 24 hrs followed by H2O2 addition and measured after 24 hrs by Annexin V-FITC/PI staining based flow cytometry analysis (reference value: 2.64%)", "type": "functional", "set-up": "scale not given: the % may be the effect or the level left"}, "PC-12 [12]": {"system": "PC-12", "test": "Inhibition of apoptosis in H2O2-induced rat PC12 cells assessed as necrotic cells at 2.5 uM incubated with compound for 24 hrs followed by H2O2 addition and measured after 24 hrs by Annexin V-FITC/PI staining based flow cytometry analysis (reference value: 4.05%)", "type": "functional", "set-up": "scale not given: the % may be the effect or the level left"}, "PC-12 [13]": {"system": "PC-12", "test": "Inhibition of apoptosis in H2O2-induced rat PC12 cells assessed as viable cells at 5 uM incubated with compound for 24 hrs followed by H2O2 addition and measured after 24 hrs by Annexin V-FITC/PI staining based flow cytometry analysis (reference value: 91.4%)", "type": "functional", "settings": "read-out: Activity"}, "PC-12 [14]": {"system": "PC-12", "test": "Inhibition of apoptosis in H2O2-induced rat PC12 cells assessed as early apoptotic cells at 5 uM incubated with compound for 24 hrs followed by H2O2 addition and measured after 24 hrs by Annexin V-FITC/PI staining based flow cytometry analysis (reference value: 1.09%)", "type": "functional", "set-up": "scale not given: the % may be the effect or the level left"}, "PC-12 [15]": {"system": "PC-12", "test": "Inhibition of apoptosis in H2O2-induced rat PC12 cells assessed as late apoptotic cells at 5 uM incubated with compound for 24 hrs followed by H2O2 addition and measured after 24 hrs by Annexin V-FITC/PI staining based flow cytometry analysis (reference value: 2.64%)", "type": "functional", "set-up": "scale not given: the % may be the effect or the level left"}, "PC-12 [16]": {"system": "PC-12", "test": "Inhibition of apoptosis in H2O2-induced rat PC12 cells assessed as necrotic cells at 5 uM incubated with compound for 24 hrs followed by H2O2 addition and measured after 24 hrs by Annexin V-FITC/PI staining based flow cytometry analysis (reference value: 4.05%)", "type": "functional", "set-up": "scale not given: the % may be the effect or the level left"}, "PC-12 [17]": {"system": "PC-12", "test": "Anti-apoptotic activity in H2O2-induced rat PC12 cells assessed as increase in PARP protein expression at 1.25 to 5 uM by Western blot analysis", "type": "functional, cell-based", "settings": "dose 1.25-5 µM"}, "PC-12 [18]": {"system": "PC-12", "test": "(§1) Neuroprotective activity in H2O2-induced rat PC12 cells assessed as reversal of mitochondrial membrane potential reduction by measuring red fluorescence at 1.25 uM incubated with compound for 24 hrs followed by H2O2 addition and measured after 24 hrs by JC-1 based fluorescence microscopic analysis (reference value: 21.62 a.u.)", "type": "functional"}, "PC-12 [19]": {"system": "PC-12", "test": "as §1, with “2.5” for “1.25”", "type": "functional"}, "PC-12 [20]": {"system": "PC-12", "test": "as §1, with “5” for “1.25”", "type": "functional"}, "PC-12 [21]": {"system": "PC-12", "test": "as §1, with “measuring green” for “measuring red”, “at 1.5” for “at 1.25”, “value: 4.90” for “value: 21.62”", "type": "functional"}, "PC-12 [22]": {"system": "PC-12", "test": "as §1, with “measuring green” for “measuring red”, “at 2.5” for “at 1.25”, “value: 4.90” for “value: 21.62”", "type": "functional"}, "PC-12 [23]": {"system": "PC-12", "test": "as §1, with “measuring green” for “measuring red”, “at 5” for “at 1.25”, “value: 4.90” for “value: 21.62”", "type": "functional"}, "PC-12 [24]": {"system": "PC-12", "test": "(§2) Neuroprotective activity in H2O2-induced rat PC12 cells assessed as reversal of mitochondrial membrane potential reduction by measuring red fluorescence fold change at 1.5 uM incubated with compound for 24 hrs followed by H2O2 addition and measured after 24 hrs by JC-1 based fluorescence microscopic analysis (reference value: 1.00)", "type": "functional"}, "PC-12 [25]": {"system": "PC-12", "test": "as §2, with “2.5” for “1.5”", "type": "functional"}, "PC-12 [26]": {"system": "PC-12", "test": "as §2, with “5” for “1.5”", "type": "functional"}, "PC-12 [27]": {"system": "PC-12", "test": "as §2, with “measuring green” for “measuring red”", "type": "functional"}, "PC-12 [28]": {"system": "PC-12", "test": "as §2, with “measuring green” for “measuring red”, “at 2.5” for “at 1.5”", "type": "functional"}, "PC-12 [29]": {"system": "PC-12", "test": "as §2, with “measuring green” for “measuring red”, “at 5” for “at 1.5”", "type": "functional"}, "PC-12 [30]": {"system": "PC-12", "test": "Induction of autophagy in H2O2-induced rat PC12 cells assessed as downregulation of P62 expression by Western blot analysis", "type": "functional, cell-based", "settings": "dose 1.25-5 µM"}, "PC-12 [31]": {"system": "PC-12", "test": "Induction of autophagy in H2O2-induced rat PC12 cells assessed as upregulation of LC3-II/I ratio by Western blot analysis", "type": "functional, cell-based", "settings": "dose 1.25-5 µM"}, "Danio rerio": {"system": "Danio rerio", "test": "Anti-alzheimer activity in scopolamine induced zebrafish alzheimer disease model assessed as increase in total swimming distance at 1.25 to 5 uM administered for 6 days post fertilization", "type": "functional, organism-based", "settings": "dose 1.25-5 µM, time 6.0 day"}, "[32]": {"test": "Drug uptake in cytoplasm of rat PC12 cells at 8 uM incubated for 8.5 hrs by HPLC analysis", "type": "ADME, subcellular", "settings": "pc12, 8.5 h"}, "[33]": {"test": "Drug uptake in rat PC12 cells at 8 uM incubated for 8.5 hrs by HPLC analysis", "type": "ADME, cell-based", "settings": "pc-12, 8.5 h"}}, "note": "Activity calls are given as the source filed them. No cut-off for these calls is given here."}
{"smiles": "C=CCc1ccc(OC)c(-c2ccc(OCCCNC(=O)[C@H](CCCNC(=O)OCc3ccccc3)NC(=O)[C@@H](NC(=O)[C@@H]3CCCN3C(=O)[C@@H](Cc3ccccc3)NC(=O)[C@H](CC(C)C)NC(=O)OC(C)(C)C)C(C)C)c(CC=C)c2)c1", "values": [{"measurement": "Activity", "setting": "PC-12 [1]", "result": "inactive"}]}
{"smiles": "C=CCc1ccc(OCCCNC(=O)[C@H](CCCNC(=O)OCc2ccccc2)NC(=O)[C@@H](NC(=O)[C@@H]2CCCN2C(=O)[C@@H](Cc2ccccc2)NC(=O)[C@H](CC(C)C)NC(=O)OC(C)(C)C)C(C)C)c(-c2ccc(OC)c(CC=C)c2)c1", "values": [{"measurement": "Activity", "setting": "PC-12 [1]", "result": "inactive"}]}
{"smiles": "C=CCc1ccc(O)c(-c2ccc(O)c(CC=C)c2)c1", "note": "[HONOKIOL]", "values": [{"measurement": "Activity", "setting": "SH-SY5Y", "result": "Active"}, {"measurement": "Activity", "setting": "PC-12 [2]", "result": "Active"}, {"measurement": "Activity", "setting": "PC-12 [3]", "result": "inactive"}, {"measurement": "Drug uptake", "setting": "[4]", "result": "Active"}, {"measurement": "viability at 1.25 µM", "setting": "PC-12 [5]", "result": 76.9, "unit": "%"}, {"measurement": "Activity", "setting": "PC-12 [6]", "result": 16.6, "unit": "%"}, {"measurement": "Activity", "setting": "PC-12 [7]", "result": 4.95, "unit": "%"}, {"measurement": "Activity", "setting": "PC-12 [8]", "result": 1.57, "unit": "%"}, {"measurement": "viability at 2.5 µM", "setting": "PC-12 [9]", "result": 79.6, "unit": "%"}, {"measurement": "Activity", "setting": "PC-12 [10]", "result": 15.6, "unit": "%"}, {"measurement": "Activity", "setting": "PC-12 [11]", "result": 3.27, "unit": "%"}, {"measurement": "Activity", "setting": "PC-12 [12]", "result": 1.43, "unit": "%"}, {"measurement": "viability at 5 µM", "setting": "PC-12 [13]", "result": 77.1, "unit": "%"}, {"measurement": "Activity", "setting": "PC-12 [14]", "result": 16.5, "unit": "%"}, {"measurement": "Activity", "setting": "PC-12 [15]", "result": 4.84, "unit": "%"}, {"measurement": "Activity", "setting": "PC-12 [16]", "result": 1.52, "unit": "%"}, {"measurement": "Activity", "setting": "PC-12 [17]", "result": "Active"}, {"measurement": "Activity", "setting": "PC-12 [18]", "result": 2.16, "unit": "a.u."}, {"measurement": "Activity", "setting": "PC-12 [19]", "result": 6.59, "unit": "a.u."}, {"measurement": "Activity", "setting": "PC-12 [20]", "result": 13.31, "unit": "a.u."}, {"measurement": "Activity", "setting": "PC-12 [21]", "result": 6.32, "unit": "a.u."}, {"measurement": "Activity", "setting": "PC-12 [22]", "result": 4.08, "unit": "a.u."}, {"measurement": "Activity", "setting": "PC-12 [23]", "result": 3.97, "unit": "a.u."}, {"measurement": "fold change (FC)", "setting": "PC-12 [24]", "result": 0.09}, {"measurement": "fold change (FC)", "setting": "PC-12 [25]", "result": 0.32}, {"measurement": "fold change (FC)", "setting": "PC-12 [26]", "result": 0.63}, {"measurement": "fold change (FC)", "setting": "PC-12 [27]", "result": 2.55}, {"measurement": "fold change (FC)", "setting": "PC-12 [28]", "result": 1.02}, {"measurement": "fold change (FC)", "setting": "PC-12 [29]", "result": 1.26}, {"measurement": "Activity", "setting": "PC-12 [30]", "result": "inactive"}, {"measurement": "Activity", "setting": "PC-12 [31]", "result": "inactive"}, {"measurement": "Activity", "setting": "Danio rerio", "result": "Active"}, {"measurement": "Drug uptake", "setting": "[32]", "result": "Active"}, {"measurement": "Drug uptake", "setting": "[33]", "result": "Active"}]}
